In patent US20250100968A1, “BICYCLIC-HETEROCYCLE DERIVATIVES AND RELATED USES” (CENTESSA PHARMACEUTICALS (UK) LIMITED, priority 2022, published 2025):

Target: T1, human orexin type 2 receptor (hOX2R) (Homo sapiens, UniProt O43614)
T1 sequence (O43614 1-444): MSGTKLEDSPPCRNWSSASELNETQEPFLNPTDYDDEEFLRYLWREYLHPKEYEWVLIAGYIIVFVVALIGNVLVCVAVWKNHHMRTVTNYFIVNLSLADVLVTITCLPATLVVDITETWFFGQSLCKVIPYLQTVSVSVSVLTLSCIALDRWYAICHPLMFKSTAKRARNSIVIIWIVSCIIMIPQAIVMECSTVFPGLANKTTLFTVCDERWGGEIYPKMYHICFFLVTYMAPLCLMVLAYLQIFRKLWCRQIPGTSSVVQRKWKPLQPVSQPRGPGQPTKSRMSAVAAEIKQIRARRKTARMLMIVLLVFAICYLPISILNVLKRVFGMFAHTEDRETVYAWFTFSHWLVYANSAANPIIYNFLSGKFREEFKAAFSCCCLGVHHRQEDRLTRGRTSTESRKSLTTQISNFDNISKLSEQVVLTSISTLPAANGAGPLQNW
Test: cell-based
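Note: agonist activity in CHO cells stably expressing hOX2R, intracellular Ca2+ via Calcium 5 dye fluorescence area over 2 min, buffer-only as 0% and 10 nM orexin A as 100%.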

Procedure: Measurement of orexin type 2 receptor agonist activity. […] After removal of the medium, 50 μl of assay buffer 1 (0.1% bovine serum albumin (Sigma Aldrich), 20 mM HEPES (Molecular Dimensions), 250 mM probenecid (Sigma Aldrich), 1× Calcium 5 dye (Molecular Devices) in Hank's balanced salt solution (Invitrogen)) was added, and the cells were incubated for 60 min under the conditions of 37° C., 5% CO2. A test compound was dissolved in dimethyl sulfoxide (Sigma Aldrich) to 10 mM, and then diluted with assay buffer 2 (20 mM HEPES, Hank's balanced salt solution, 0.1% bovine serum albumin). For the reaction, a test compound solution (10 μl) was added using Fluorescent Imaging Plate Reader TETRA (FLIPR TETRA: manufactured by Molecular Devices), a fluorescence value (excitation wavelength 488 nm, measurement wavelength 570 nm) of each well was measured every one second for 2 min, and the agonist activity was determined using the area of the fluorescence value as an indicator of intracellular Ca^2+ concentration. The agonist activity of the test compound was calculated assuming that the fluorescence value of the well added with only the dilution buffer was 0% and the fluorescence value of the well added with 10 nM human orexin A (Tocris) buffer was 100%.

SMILES | EC50
C[C@H](C#N)C(=O)N1CC2(CC2)[C@H](NS(=O)(=O)C(F)F)[C@@H]1Cc1cccc(-c2cc(F)cc(F)c2)c1F [compound 49, N-((6S,7S)-5-((R)-2-cyanopropanoyl)-6-((2,3′,5′-trifluoro-[1,1′-biphenyl]-3-yl)methyl)-5-azaspiro[2.4]heptan-7-yl)-1,1-difluoromethanesulfonamide] | 1 to 10 nM
O=C([C@H](O)CF)N1CC2(CC2)[C@H](NS(=O)(=O)C(F)F)[C@@H]1Cc1cccc(-c2cc(F)cc(F)c2)c1F [compound 8, 1,1-difluoro-N-((6S,7S)-5-((S)-3-fluoro-2-hydroxypropanoyl)-6-((2,3′,5′-trifluoro-[1,1′-biphenyl]-3-yl)methyl)-5-azaspiro[2.4]heptan-7-yl)methanesulfonamide] | 1 to 10 nM
C[C@@H](NC(=O)N1CC2(CC2)[C@H](NS(=O)(=O)CF)[C@@H]1Cc1cc(F)cc(-c2ccccc2)c1F)C(F)F [compound 88, (6S,7S)-6-((2,5-difluoro-[1,1′-biphenyl]-3-yl)methyl)-N-((R)-1,1-difluoropropan-2-yl)-7-((fluoromethyl)sulfonamido)-5-azaspiro[2.4]heptane-5-carboxamide] | 1 to 10 nM
O=C(C(O)CF)N1CC2(CC2)[C@H](NS(=O)(=O)C(F)F)[C@@H]1Cc1cccc(-c2cccc(F)c2)c1F (mixture of isomers) [compound 29, N-((6S,7S)-6-((2,3′-difluoro-[1,1′-biphenyl]-3-yl)methyl)-5-((RS)-3-fluoro-2-hydroxypropanoyl)-5-azaspiro[2.4]heptan-7-yl)-1,1-difluoromethanesulfonamide] | 0.0631 to 1 nM
C[C@](O)(CF)C(=O)N1CC2(CC2)[C@H](NS(=O)(=O)C2(F)CC2)[C@@H]1Cc1cccc(-c2ccccc2)c1F [compound 91, 1-fluoro-N-((6S,7S)-5-((R)-3-fluoro-2-hydroxy-2-methylpropanoyl)-6-((2-fluoro-[1,1′-biphenyl]-3-yl)methyl)-5-azaspiro[2.4]heptan-7-yl)cyclopropane-1-sulfonamide] | 0.0631 to 1 nM
CC(F)(F)CNC(=O)N1CC2(CC2)[C@H](NS(=O)(=O)CF)[C@@H]1Cc1cc(F)cc(-c2ccccc2)c1F [compound 74, (6S,7S)-6-((2,5-difluoro-[1,1′-biphenyl]-3-yl)methyl)-N-(2,2-difluoropropyl)-7-((fluoromethyl)sulfonamido)-5-azaspiro[2.4]heptane-5-carboxamide] | 1 to 10 nM
C[C@@H](NC(=O)N1CC2(CC2)[C@H](NS(=O)(=O)CF)[C@@H]1Cc1cccc(-c2cc(F)cc(F)c2)c1F)C(F)F [compound 4, (6S,7S)-N-((R)-1,1-difluoropropan-2-yl)-7-((fluoromethyl)sulfonamido)-6-((2,3′,5′-trifluoro-[1,1′-biphenyl]-3-yl)methyl)-5-azaspiro[2.4]heptane-5-carboxamide] | 1 to 10 nM
C[C@H](F)S(=O)(=O)N[C@@H]1[C@H](Cc2cc(F)cc(-c3cc(F)cc(F)c3)c2F)N(C(=O)[C@H]2CCO2)CC12CC2 [compound 58, (R)-1-fluoro-N-((6S,7S)-5-((R)-oxetane-2-carbonyl)-6-((2,3′,5,5′-tetrafluoro-[1,1′-biphenyl]-3-yl)methyl)-5-azaspiro[2.4]heptan-7-yl)ethane-1-sulfonamide] | 1 to 10 nM
CC(C)(F)CNC(=O)N1CC2(CC2)[C@H](NS(=O)(=O)CF)[C@@H]1Cc1cc(F)cc(-c2ccccc2)c1F [compound 51, (6S,7S)-6-((2,5-difluoro-[1,1′-biphenyl]-3-yl)methyl)-N-(2-fluoro-2-methylpropyl)-7-((fluoromethyl)sulfonamido)-5-azaspiro[2.4]heptane-5-carboxamide] | 0.0631 to 1 nM
O=C(NCC(F)F)N1CC2(CC2)[C@H](NS(=O)(=O)CF)[C@@H]1Cc1cccc(-c2cc(F)cc(F)c2)c1F [compound 15, (6S,7S)-N-(2,2-difluoroethyl)-7-((fluoromethyl)sulfonamido)-6-((2,3′,5′-trifluoro-[1,1′-biphenyl]-3-yl)methyl)-5-azaspiro[2.4]heptane-5-carboxamide] | 1 to 10 nM
CC[C@@](C)(O)C(=O)N1CC2(CC2)[C@H](NS(=O)(=O)CF)[C@@H]1Cc1cccc(-c2cccc(F)c2)c1F [compound 30, N-((6S,7S)-6-((2,3′-difluoro-[1,1′-biphenyl]-3-yl)methyl)-5-((R)-2-hydroxy-2-methylbutanoyl)-5-azaspiro[2.4]heptan-7-yl)-1-fluoromethanesulfonamide] | 0.0631 to 1 nM
CC(C)(F)CNC(=O)N1CC2(CC2)[C@H](NS(=O)(=O)CF)[C@@H]1Cc1cccc(-c2cc(F)cc(F)c2)c1F [compound 37, (6S,7S)-N-(2-fluoro-2-methylpropyl)-7-((fluoromethyl)sulfonamido)-6-((2,3′,5′-trifluoro-[1,1′-biphenyl]-3-yl)methyl)-5-azaspiro[2.4]heptane-5-carboxamide] | 1 to 10 nM
C[C@@H](C#N)C(=O)N1CC2(CC2)[C@H](NS(=O)(=O)CF)[C@@H]1Cc1cccc(-c2cc(F)cc(F)c2)c1F [compound 63, N-((6S,7S)-5-((S)-2-cyanopropanoyl)-6-((2,3′,5′-trifluoro-[1,1′-biphenyl]-3-yl)methyl)-5-azaspiro[2.4]heptan-7-yl)-1-fluoromethanesulfonamide] | 1 to 10 nM
C[C@H](F)S(=O)(=O)N[C@@H]1[C@H](Cc2cc(F)cc(-c3ccccc3)c2F)N(C(=O)[C@H]2CCO2)CC12CC2 [compound 56, (R)-N-((6S,7S)-6-((2,5-difluoro-[1,1′-biphenyl]-3-yl)methyl)-5-((R)-oxetane-2-carbonyl)-5-azaspiro[2.4]heptan-7-yl)-1-fluoroethane-1-sulfonamide] | 0.0631 to 1 nM
C[C@@](O)(C(=O)N1CC2(CC2)[C@H](NS(=O)(=O)CF)[C@@H]1Cc1cccc(-c2ccccc2)c1F)C1CC1 [compound 2, N-((6S,7S)-5-((S)-2-cyclopropyl-2-hydroxypropanoyl)-6-((2-fluoro-[1,1′-biphenyl]-3-yl)methyl)-5-azaspiro[2.4]heptan-7-yl)-1-fluoromethanesulfonamide] | 10 to 100 nM
COCC1(C(=O)N2CC3(CC3)[C@H](NS(C)(=O)=O)[C@@H]2Cc2cccc(-c3ccccc3)c2F)CC1 [compound 26, N-((6S,7S)-6-((2-fluoro-[1,1′-biphenyl]-3-yl)methyl)-5-(1-(methoxymethyl)cyclopropane-1-carbonyl)-5-azaspiro[2.4]heptan-7-yl)methanesulfonamide] | 0.0631 to 1 nM
CC(F)(F)CNC(=O)N1CC2(CC2)[C@H](NS(=O)(=O)C(F)F)[C@@H]1Cc1cccc(-c2cc(F)cc(F)c2)c1F [compound 39, (6S,7S)-7-((difluoromethyl)sulfonamido)-N-(2,2-difluoropropyl)-6-((2,3′,5′-trifluoro-[1,1′-biphenyl]-3-yl)methyl)-5-azaspiro[2.4]heptane-5-carboxamide] | 1 to 10 nM
C[C@](O)(C(=O)N1CC2(CC2)[C@H](NS(=O)(=O)CF)[C@@H]1Cc1cccc(-c2cccc(F)c2)c1F)C(F)F [compound 6, N-((6S,7S)-5-((S)-3,3-difluoro-2-hydroxy-2-methylpropanoyl)-6-((2,3′-difluoro-[1,1′-biphenyl]-3-yl)methyl)-5-azaspiro[2.4]heptan-7-yl)-1-fluoromethanesulfonamide] | 0.0631 to 1 nM
N#CC1(C(=O)N2CC3(CC3)[C@H](NS(=O)(=O)CF)[C@@H]2Cc2cc(F)cc(-c3ccccc3)c2F)CC1 [compound 76, N-((6S,7S)-5-(1-cyanocyclopropane-1-carbonyl)-6-((2,5-difluoro-[1,1′-biphenyl]-3-yl)methyl)-5-azaspiro[2.4]heptan-7-yl)-1-fluoromethanesulfonamide] | 0.0631 to 1 nM
O=C(NCC(F)F)N1CC2(CC2)[C@H](NS(=O)(=O)C(F)F)[C@@H]1Cc1cccc(-c2cc(F)cc(F)c2)c1F [compound 28, (6S,7S)-N-(2,2-difluoroethyl)-7-((difluoromethyl)sulfonamido)-6-((2,3′,5′-trifluoro-[1,1′-biphenyl]-3-yl)methyl)-5-azaspiro[2.4]heptane-5-carboxamide] | 0.0631 to 1 nM
N#C[C@]1(C(=O)N2CC3(CC3)[C@H](NS(=O)(=O)CF)[C@@H]2Cc2cccc(-c3cc(F)cc(F)c3)c2F)CCO1 [compound 47, N-((6S,7S)-5-((S)-2-cyanooxetane-2-carbonyl)-6-((2,3′,5′-trifluoro-[1,1′-biphenyl]-3-yl)methyl)-5-azaspiro[2.4]heptan-7-yl)-1-fluoromethanesulfonamide] | 1 to 10 nM
C[C@@H](F)S(=O)(=O)N[C@@H]1[C@H](Cc2cc(F)cc(-c3ccccc3)c2F)N(C(=O)[C@H]2CCO2)CC12CC2 [compound 55, (S)-N-((6S,7S)-6-((2,5-difluoro-[1,1′-biphenyl]-3-yl)methyl)-5-((R)-oxetane-2-carbonyl)-5-azaspiro[2.4]heptan-7-yl)-1-fluoroethane-1-sulfonamide] | 1 to 10 nM
CC[C@](C)(O)C(=O)N1CC2(CC2)[C@H](NS(=O)(=O)CF)[C@@H]1Cc1cccc(-c2cccc(F)c2)c1F [compound 33, N-((6S,7S)-6-((2,3′-difluoro-[1,1′-biphenyl]-3-yl)methyl)-5-((S)-2-hydroxy-2-methylbutanoyl)-5-azaspiro[2.4]heptan-7-yl)-1-fluoromethanesulfonamide] | 0.0631 to 1 nM
C[C@](O)(C(=O)N1CC2(CC2)[C@H](NS(=O)(=O)CF)[C@@H]1Cc1cc(F)cc(-c2ccccc2)c1F)C(F)F [compound 84, N-((6S,7S)-5-((S)-3,3-difluoro-2-hydroxy-2-methylpropanoyl)-6-((2,5-difluoro-[1,1′-biphenyl]-3-yl)methyl)-5-azaspiro[2.4]heptan-7-yl)-1-fluoromethanesulfonamide] | 1 to 10 nM
